These results are taken from patent publication US20220304349A1, “Steviol Glycoside Compositions for Oral Ingestion or Use” (CARGILL, Incorporated, priority 2016, published 2022).

Molecules are shown by their SMILES.

A short description of data set [1]: Instantaneous solubility: vigorous mixing with deionized water for 10 minutes at room temperature. Format: physicochemical. Further details: key to instantaneous solubility at stated concentration: Clear solutions without precipitates are considered soluble. The conditions noted are these: for concentration of the rebaudioside in the instantaneously soluble 0.37% solution of the fermentation composition: room temperature water; for instantaneous solubility: water, room temperature. On the procedure:
The composition can optionally be expressed in terms of the concentration of one or more steviol glycoside(s). […] Clear solutions without precipitates are considered soluble. Unless indicated otherwise herein, the term “solubility” refers to “equilibrium solubility.”
Instantaneous solubility is determined by mixing steviol glycoisde with deionized water vigorously for 10 minutes at room temperature. […] Clear solutions without precipitates are considered soluble.

Data set [2] in a line: Sweetness time intensity (TI) profile in water, SG composition Lot B versus RebM. It is filed as in vivo, human. Particulars: sweetness TI in water vs RebM. On the procedure: Comparison of SG composition Lot B and RebM using TI for sweet.
Training: Descriptive panelists, who are highly trained and experienced on-call taste panelists, had four training sessions. They trained with sucrose references. Then they practiced scoring the samples using the scale on the ballot using a time intensity scale.
Testing: There was at least a 10 minute break in between samples. They were provided with filtered water, sparkling water, carrots, unsalted rice crackers and unsalted saltine crackers during break only. All samples were evaluated in a balanced sequential order one at a time. Panelists swallowed the sample at 10 seconds.
Serving Size/Container: 15 g in a 2 oz cup Serving Temp Room temperature
Sweetness Results (12 panelists; 3 replicates)

For data set [3] the following is noted: cited from earlier work.
The conditions of data set [4]: in vivo; cited from earlier work.
A short description of data set [5]: Sensory evaluation by two to three experienced tasters, solutions in reverse osmosis water (Example 5, Tests A and B). Format: in vivo, human. The method, then:
(§1) Glycoside samples (SG101-104) were isolated and purified from fermentation broth, purified Rebs A, B, and D are of leaf origin and Reb M is chemically synthesized. All samples were dissolved in reverse osmosis water at the concentrations indicated. Unsweetened black tea was used in one set of experiments. Approximately 2-3 milliliters of each solution was tasted and sensory evaluations conducted by two to three experienced tasters. Test A
As used herein, “sucrosey” means having a flavor profile, a sweetness profile, or a flavor profile and a sweetness pofile more similar to that of sucrose.

Data set [6] can be described thus: Sensory evaluation by experienced tasters in unsweetened black tea (Example 5, Test A). Format: in vivo, human. Particulars: about 200 ppm in tea. On the procedure:
as §1

Data set [7] in a line: Equilibrium solubility: heating in deionized water at 80° C. for 15 minutes, cooling to room temperature, observation up to 4 days. Format: physicochemical. The conditions noted are these: for equilibrium solubility: after 80° C. for 15 minutes, at room temperature, up to 4 days. Further details: key to equilibrium solubility at stated concentration: Clear solutions without precipitates are considered soluble. The text has this:
The composition can optionally be expressed in terms of the concentration of one or more steviol glycoside(s). […] Clear solutions without precipitates are considered soluble. Unless indicated otherwise herein, the term “solubility” refers to “equilibrium solubility.” […]

A short description of data set [8]: SEV measurement by trained sensory panel in citric acid buffer at pH=3.0. It is filed as in vivo, human. Particulars: for SEV: citric acid buffer pH=3.0; for Sucrose equivalent value / relative sweetness scale- sucrose = 1: 250 ppm in citric buffer, pH = 3.0. The text has this:
Sweetness may be determined by measuring sucrose equivalent values (SEV) using methods and processes well known to those skilled in the art. For example, SEV may be determined by measuring sweetness equivalence to a reference sucrose solution. Typically, taste panelists are trained to detect and scale sweetness of reference sucrose solutions containing between 10 g to 150 g sucrose/kg (1 to 15 wt % aqueous sucrose solution). A sweetener composition containing one or more glycosides are then tasted at a series of dilutions to determine the concentration of the sweetener composition that is as sweet as a given sucrose reference. For example, if a sweetened solution is as sweet as a 5 wt % sucrose solution, then the sweetened solution is assigned a SEV of 5.
SEV measurements for SG101-104 (listed above and in Table 12) were performed according to the following procedure: A trained sensory panel evaluated solutions of SG101, SG102, SG103, and SG104 at the concentrations specified. Solutions were made in a citric acid buffer at pH=3.0. All solutions were heated to 55° C. for 12 minutes to ensure that all the glycoside material was completely dissolved. The solutions were allowed to cool to room temperature before serving to the panelists. Each solution was given a random 3-digit code and was served to the panelists in random order. Panelists dispensed 2 mL of each solution into their mouths from a pipette. The panelists were then asked to rate the “sweetness intensity” of the solutions and mark their responses on an un-anchored, 15 cm line scale. The length of the line corresponds to the scale values (1-15) on which the participants were trained. The panelists' responses were measured, compiled, and averaged for each sample. Each sample was tested by approximately 12 trained panelists.

As for `C=C1C[C@@]23CC[C@H]4[C@@](C)(CCC[C@@]4(C)C(=O)O[C@@H]4O[C@H](CO)[C@@H](O)[C@H](O[C@@H]5O[C@H](CO)[C@@H](O)[C@H](O)[C@H]5O)[C@H]4O[C@@H]4O[C@H](CO)[C@@H](O)[C@H](O)[C@H]4O)[C@@H]2CC[C@]1(O[C@@H]1O[C@H](CO)[C@@H](O)[C@H](O[C@@H]2O[C@H](CO)[C@@H](O)[C@H](O)[C@H]2O)[C@H]1O[C@@H]1O[C@H](CO)[C@@H](O)[C@H](O)[C@H]1O)C3` [Reb M, rebaudioside M], the “instantaneous solubility at stated concentration” value in data set [1] (0.10%) was “soluble”; in data set [1] (0.13%), “soluble”; in data set [1] (0.20%), “insoluble”; in data set [1] (0.30%), “insoluble”. Further, in data set [1] (in the presence of compounds SG101-104 (fermentation derived composition)), the “improvement (increase) in instantaneous solubility over the pure rebaudioside” value is reported as > 60%. Besides, the “concentration of the rebaudioside in the instantaneously soluble 0.37% solution of the fermentation composition” value in data set [1] was 0.21%; in data set [1] (listed as reb M), “about 0.21%”. Also, the instantaneous solubility result in data set [1] was “at least 0.13%”; in data set [1] (listed as rebaudioside M) it was “about 0.13%”. The Perimeter in data set [2] is reported as 58.3. This molecule gave an AUC in data set [2] (area under the curve (total)) of 132.9a. In data set [2] (duration of peak intensity), the “Plateau Time” value is 4.1a. In data set [2] (duration time of sensation), the Tdur came out at 35.4a. Moreover, the Imax in data set [2] (peak intensity, 12 panelists, 3 replicates) was found to be 5.9. Further, the APostMax in data set [2] (post-peak area under the curve) is listed as 90.0a. The same molecule displayed an APreMax in data set [2] (pre-peak area under the curve) of 43.0. Besides, in data set [2] (slope after peak intensity), the “Rate Decrease” value is listed as −0.2a. Further, the “Rate Increase” value in data set [2] (slope before peak intensity) is on record as 0.7. The Tonset in data set [2] (time sensation is first perceived) came to 0.8. The same molecule gave a Text in data set [2] (time to extinction) of 36.3a. Further, the “aqueous solubility in words” value in data set [3] was “poor aqueous solubility and dissolution qualities in beverage formulations”. The sweetness characteristics entry in data set [4] is “higher sweetness intensity and is more potent than other steviol glycosides”. The Sensory comments result in data set [5] (200 ppm in water, Test A) was “Typical mid-sweet for Reb M, fairly well rounded, quick rise, some tailing, some bitter”; in data set [5] (400 ppm in water, Test A), “Higher sweet, faster onset than 200 ppm, cotton candy sweetness-skews to HFCS longer linger, sharper bitterness—but not oppressing sweetness”; in data set [5] (Reb M alone in water, Test B, concentration not stated at the comment), “clean, sweet, spiky sweetness”; in data set [6], “Nice subtle sweetness, feels like sugar, but with long linger very good”. For the same molecule, the “equilibrium solubility at stated concentration” value in data set [7] (0.10%) is recorded as “soluble”; in data set [7] (0.13%), “soluble”; in data set [7] (0.20%), “soluble”; in data set [7] (0.30%), “insoluble”. Moreover, the equilibrium solubility result in data set [7] is given as “at least 0.2%”; in data set [7] (listed as rebaudioside M) it was “about 0.2%”.
Regarding `C=C1C[C@@]23CCC4[C@](C)(C(=O)OC5OC(CO)C(O)C(O)C5OC5OC(CO)C(O)C(O)C5O)CCC[C@@]4(C)[C@@H]2CC[C@]1(OC1OC(COC2OC(CO)C(O)C(O)C2O)C(O)C(OC2OC(CO)C(O)C(O)C2O)C1OC1OC(CO)C(O)C(O)C1O)C3` (stereo partly shown) [SG101], the Sensory comments entry in data set [5] (200 ppm in water, Test A) was “not sweet, astringent, cloying—mouth drying on the tongue”; in data set [6] it was “Zero sweetness, seems less than in water, naked tea”. For the same molecule, the SEV in data set [8] (200 ppm) turned out to be 0.6; in data set [8] (400 ppm) it was 1.2; in data set [8] (500 ppm), 1.6.
For `C=C1C[C@@]23CCC4[C@](C)(C(=O)OC5OC(CO)C(O)C(OC6OC(CO)C(O)C(O)C6O)C5OC5OC(CO)C(O)C(O)C5O)CCC[C@@]4(C)[C@@H]2CC[C@]1(OC1OC(COC2OC(CO)C(O)C(O)C2O)C(O)C(OC2OC(CO)C(O)C(O)C2O)C1OC1OC(CO)C(O)C(O)C1O)C3` (stereo partly shown) [SG102], the Sensory comments entry in data set [5] (200 ppm in water, Test A) was “a bit sweeter than SG101, sweetness does have quick onset”; in data set [6], “Not sweet, slightly less astringent, some additional roundedness”. Besides, the values for the SEV in data set [8] (200 ppm) and in data set [8] (400 ppm) were 1.0 and 1.5, respectively.
As for `C=C1C[C@@]23CCC4[C@](C)(C(=O)OC5OC(CO)C(O)C(O)C5OC5OC(CO)C(O)C(O)C5O)CCC[C@@]4(C)[C@@H]2CC[C@]1(OC1OC(CO)C(O)C(OC2OC(COC4OC(CO)C(O)C(O)C4O)C(O)C(O)C2O)C1OC1OC(CO)C(O)C(O)C1O)C3` (stereo partly shown) [SG103], the Sensory comments result in data set [5] (200 ppm in water, Test A) is “as sweet or sweeter than 200 ppm Reb M, more sucrosey, sugary quality characteristics (high fructose corn syrup (HFCS), cotton candy notes) are reminiscent of Reb M at 400 ppm but not as sweet, “fuller” feeling”; in data set [6], “Slower onset than Reb M by itself, not as sweet as Reb M, slightly more licorice aftertaste”. In data set [8], the Sucrose equivalent value turned out to be 4.8. Moreover, the “relative sweetness scale- sucrose = 1” value in data set [8] was determined as 192X.
Consider `C=C1C[C@@]23CCC4[C@](C)(C(=O)OC5OC(CO)C(O)C(OC6OC(CO)C(O)C(O)C6O)C5OC5OC(CO)C(O)C(O)C5O)CCC[C@@]4(C)[C@@H]2CC[C@]1(OC1OC(CO)C(O)C(OC2OC(COC4OC(CO)C(O)C(O)C4O)C(O)C(O)C2O)C1OC1OC(CO)C(O)C(O)C1O)C3` (stereo partly shown) [SG104], for which the Sensory comments entry in data set [5] (200 ppm in water, Test A) is “as sweet or sweeter than 200 ppm Reb M, more rounded sweetness, enhanced sugar quality effects (sensations reminiscent of sucrose, vanilla), “fuller” feeling”; in data set [6], “As sweet as Reb M, very sucrosey compared to Reb M, a little back end licorice”. Also, the Sucrose equivalent value in data set [8] is 6.5. The “relative sweetness scale- sucrose = 1” value in data set [8] is 260X.
